The source of these data is paper PMC4835877, “HM71224, a novel Bruton’s tyrosine kinase inhibitor, suppresses B cell and monocyte activation and ameliorates arthritis in a mouse model: a potential drug for rheumatoid arthritis” (Arthritis Research & Therapy, 2016).

The structures appear in SMILES notation.

In this assay the test system is human CD14+ monocytes. In words: Cytokine production by IC-stimulated human monocytes (ELISA). The class given is cell-based. The note with it: heat-inactivated ICs, increasing concentrations. For orientation: An ELISA detects its analyte on a solid surface through an enzyme-linked reagent.

Procedure: Human monocytes were stimulated with heat-inactivated ICs at 37 °C for 30 minutes in the presence of increasing concentrations of HM71224. Human PDCs were stimulated with lipopolysaccharide (LPS) or CpG ODN 2006 (ThermoFisher Scientific) for 48 h in the absence or presence of HM71224 (1 μM). The production of tumor necrosis factor (TNF)-α, interleukin (IL)-1β, and IL-6 was then measured using a commercial ELISA (R&D Systems). […] The levels of the indicated cytokines in the culture supernatant were then measured by ELISA at 5 h post stimulation. […] The levels of the indicated cytokines in the culture supernatant were then measured by ELISA at 48 h post stimulation.*P < 0.05, **P < 0.01, and ***P < 0.001 vs. no treatment. LPS lipopolysaccharide

For the molecule `C=CC(=O)Nc1cccc(Oc2nc(Nc3ccc(N4CCN(C)CC4)cc3)nc3ccoc23)c1` [HM71224], the “Production of TNF-α, IL-1β, and IL-6” value was “inhibited in a dose-dependent manner”.
